Source: US20230017786A1, “DEXTR[…] A DISEASE-MODIFYING TREATMENT FOR NEUROPSYCHIATRIC DISORDERS AND DISEASES” (priority 2020, published 2023)
Several values for one entry are separate records, joined by “and”; a condition that tells them apart may be missing. Equal values may be shown once. Where a name gives a salt, the structure may show the parent alone.

How the values were obtained:
Format in all cases: cell-based
[1] = molecular target: T1, human NMDA receptor GluN1-GluN2C (Homo sapiens, UniProt Q05586+Q14957); experiment: FLIPR calcium assay, test item effect on L-glutamate CRC, GluN1-GluN2C-CHO
T1 construct: expressed in transfected cells; host or cells: CHO
Description: (§1) FLIPR determination of intracellular calcium level was used as a read-out for NMDAR activation.
(§2) 400× compound plate was stored at −20° C. until FLIPR experimental day.
(§3) 4× compound plate was generated from 400× compound plate by addition of up to 30 μl/well of compound buffer on FLIPR experimental day.
(§4) A FLIPR system was used to monitor intracellular calcium level in NMDAR cell lines, pre-loaded for 1 hour with Fluo-4, and then washed with assay buffer.
(§5) Y=Bottom+(Top−Bottom)/(1+10^((LogEC50−Log[A])*HillSlope))

[2] = test system: diheteromeric human recombinant NMDAR containing GluN1 plus GluN2A, GluN2B, GluN2C or GluN2D; experiment: FLIPR calcium assay, statements for all four NMDAR subtypes together; settings: 6 test item concentrations
From the text: An operational equation for allosteric modulators (Leach K, Sexton P M and Christopoulos A, Allosteric GPCR modulators: taking advantage of permissive receptor pharmacology, Trends Pharmacol. Sci. 28: 382-389, 2007; Kenakin T P, Overview of receptor interaction of agonists and antagonists, Curr. Protoc. Pharmacol. Chapter 4: Unit 4.1, 2008, Kenakin T P, Biased signalling and allosteric machines: new vistas and challenges for drug discovery, Br. J. Pharmacol. 165: 1659-1669, 2012) was created in Prism 8 (GraphPad) software to estimate KB and a parameters for every test item, with the assumption that, as a pore blocker, every test item would be able to produce a compete blockade of agonist response, at sufficiently high concentration: […]

[3] = molecular target: T2, human NMDA receptor GluN1-GluN2A (Homo sapiens, UniProt Q05586+Q12879); experiment: FLIPR calcium assay, test item effect on L-glutamate CRC, GluN1-GluN2A-CHO
T2 construct: expressed in transfected cells; host or cells: CHO
Description: as §1, §2, §3, §4, §5

[4] = molecular target: T3, human NMDA receptor GluN1-GluN2D (Homo sapiens, UniProt O15399+Q05586); experiment: FLIPR calcium assay, test item effect on L-glutamate CRC, GluN1-GluN2D-CHO
T3 construct: expressed in transfected cells; host or cells: CHO
Description: as §1, §2, §3, §4, §5

[5] = molecular target: T4, human NMDA receptor GluN1-GluN2B (Homo sapiens, UniProt Q05586+Q13224); experiment: cell-based
T4 construct: expressed in transfected cells; host or cells: CHO
Description: as §1, §2, §3, §4, §5

[6] = molecular target: T4, human NMDA receptor GluN1-GluN2B; experiment: FLIPR calcium assay, quinolinic acid, gentamicin, dextromethadone (Example 5 Part II), GluN1-GluN2B-CHO
Description: (§6) Quinolinic acid or gentamicin CRCs were also produced, in presence of 10 μM glycine.
(§7) Test items were evaluated in FLIPR for their ability to modulate, alone or in combination, calcium entry in presence of […], using four CHO cell lines expressing diheteromeric human NMDA receptor (NMDAR): GluN-/GluN2A-CHO, GluN1-GluN2B-CHO, GluN1-GluN2C-CHO, GluN1-GluN2D-CHO.
(§8) The first aim of the study was to evaluate quinolinic acid or gentamicin CRC effect in the presence of 10 μM glycine.
as §1
(§9) 400× compound plate was stored at −20° C. till FLIPR experimental day.
(§10) A 4× compound plate was generated from 400× compound plate by addition of up to 30 μl/well of compound buffer on FLIPR experimental day.
as §4
(§11) Y=Bottom+(Top−Bottom)/(1+10^((LogEC50−X)*HillSlope))
(§12) Test item CRC data were plotted by Prism 8 GraphPad software, in the different experimental conditions. And, column analysis, performed by Prism 8 GraphPad software, was one way ANOVA followed by Tukey's multiple comparisons test, with a single pooled variance.

[7] = molecular target: T1, human NMDA receptor GluN1-GluN2C; experiment: FLIPR calcium assay, quinolinic acid, gentamicin, dextromethadone (Example 5 Part II), GluN1-GluN2C-CHO
Description: as §6, §7, §8, §1, §9, §10, §4, §11, §12

[8] = molecular target: T5, recombinant human NMDAR GluN1 plus GluN2A (Homo sapiens, UniProt Q05586+Q12879); experiment: FLIPR calcium assay, gentamicin as PAM (Example 5 Part I), GluN2A cell line; settings: 10 μM test item; dextromethadone in presence and absence of 10 μM gentamicin
T5 construct: expressed in transfected cells; host or cells: CHO
From the text: (§13) A FLIPR calcium assay was used to profile gentamicin using stable cell lines expressing diheteromeric recombinant human NMDARs, containing GluN1 plus one amongst GluN2A, GluN2B, GluN2C or GluN2D subunit.

[9] = molecular target: T6, recombinant human NMDAR GluN1 plus GluN2B (Homo sapiens, UniProt Q05586+Q13224); experiment: FLIPR calcium assay, gentamicin as PAM (Example 5 Part I), GluN2B cell line; settings: 10 μM test item; dextromethadone in presence and absence of 10 μM gentamicin
T6 construct: expressed in transfected cells; host or cells: CHO
From the text: as §13

[10] = molecular target: T2, human NMDA receptor GluN1-GluN2A; experiment: FLIPR calcium assay, quinolinic acid, gentamicin, dextromethadone (Example 5 Part II), GluN1-GluN2A-CHO; parameters: calcium response (mean±SEM): unit not given here
Description: as §6, §7, §8, §1, §9, §10, §4, §11, §12

[11] = molecular target: T7, recombinant human NMDAR GluN1 plus GluN2C (Homo sapiens, UniProt Q05586+Q14957); experiment: FLIPR calcium assay, gentamicin as PAM (Example 5 Part I), GluN2C cell line; settings: 10 μM test item; dextromethadone in presence and absence of 10 μM gentamicin
T7 construct: expressed in transfected cells; host or cells: CHO
From the text: as §13

[12] = molecular target: T3, human NMDA receptor GluN1-GluN2D; experiment: FLIPR calcium assay, quinolinic acid, gentamicin, dextromethadone (Example 5 Part II), GluN1-GluN2D-CHO
Description: as §6, §7, §8, §1, §9, §10, §4, §11, §12

[13] = molecular target: T8, recombinant human NMDAR GluN1 plus GluN2D (Homo sapiens, UniProt O15399+Q05586); experiment: FLIPR calcium assay, gentamicin as PAM (Example 5 Part I), GluN2D cell line; settings: 10 μM test item; dextromethadone in presence and absence of 10 μM gentamicin
T8 construct: expressed in transfected cells; host or cells: CHO
From the text: as §13

[14] = operational analysis for allosteric modulators
[15] = CRC in presence of 10 μM glycine
[16] = CRC in presence of 10 μM glycine, no glutamate
[17] = gentamicin CRC, max 100, 10 μM glycine

T6 sequence (Q13224 27-1484, other chains not shown): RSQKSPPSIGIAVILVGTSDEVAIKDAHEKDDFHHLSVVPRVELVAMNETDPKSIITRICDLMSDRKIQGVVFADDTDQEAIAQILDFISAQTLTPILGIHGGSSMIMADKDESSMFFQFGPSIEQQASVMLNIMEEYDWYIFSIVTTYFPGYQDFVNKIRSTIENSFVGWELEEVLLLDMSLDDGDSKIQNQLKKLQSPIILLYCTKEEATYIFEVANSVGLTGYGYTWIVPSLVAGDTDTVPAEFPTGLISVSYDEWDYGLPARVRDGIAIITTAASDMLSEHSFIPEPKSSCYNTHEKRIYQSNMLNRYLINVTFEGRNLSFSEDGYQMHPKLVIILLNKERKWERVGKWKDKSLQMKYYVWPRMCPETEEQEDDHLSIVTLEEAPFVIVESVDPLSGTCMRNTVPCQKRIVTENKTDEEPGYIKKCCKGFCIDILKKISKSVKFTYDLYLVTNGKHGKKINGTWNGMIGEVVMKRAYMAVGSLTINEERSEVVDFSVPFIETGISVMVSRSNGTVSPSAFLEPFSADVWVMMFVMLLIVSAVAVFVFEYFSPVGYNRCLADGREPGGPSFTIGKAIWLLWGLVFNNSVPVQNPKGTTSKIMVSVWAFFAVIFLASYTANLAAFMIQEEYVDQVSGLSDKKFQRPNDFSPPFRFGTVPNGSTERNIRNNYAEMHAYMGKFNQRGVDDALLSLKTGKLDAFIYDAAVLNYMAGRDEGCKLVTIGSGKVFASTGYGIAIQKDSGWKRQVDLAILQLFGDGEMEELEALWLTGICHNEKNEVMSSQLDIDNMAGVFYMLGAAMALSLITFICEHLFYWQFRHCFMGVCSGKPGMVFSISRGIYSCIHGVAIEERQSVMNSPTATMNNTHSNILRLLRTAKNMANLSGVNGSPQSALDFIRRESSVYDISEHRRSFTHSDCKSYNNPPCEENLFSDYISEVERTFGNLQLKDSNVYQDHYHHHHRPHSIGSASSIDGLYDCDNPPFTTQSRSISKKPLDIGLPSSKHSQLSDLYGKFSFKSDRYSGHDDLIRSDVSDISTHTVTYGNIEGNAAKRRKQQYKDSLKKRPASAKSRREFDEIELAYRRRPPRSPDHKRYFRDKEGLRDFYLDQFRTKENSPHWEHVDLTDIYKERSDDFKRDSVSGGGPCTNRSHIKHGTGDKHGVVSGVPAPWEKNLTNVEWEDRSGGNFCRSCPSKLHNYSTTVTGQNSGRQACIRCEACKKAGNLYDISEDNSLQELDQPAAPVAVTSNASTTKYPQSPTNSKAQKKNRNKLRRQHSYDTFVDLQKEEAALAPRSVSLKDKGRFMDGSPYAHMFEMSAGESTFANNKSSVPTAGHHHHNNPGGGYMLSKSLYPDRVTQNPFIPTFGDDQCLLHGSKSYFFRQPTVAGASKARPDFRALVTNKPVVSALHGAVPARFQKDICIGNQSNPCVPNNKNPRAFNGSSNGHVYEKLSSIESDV
T4 sequence (Q13224 27-1484, other chains not shown): as above
T1 sequence (Q14957 20-1233, other chains not shown): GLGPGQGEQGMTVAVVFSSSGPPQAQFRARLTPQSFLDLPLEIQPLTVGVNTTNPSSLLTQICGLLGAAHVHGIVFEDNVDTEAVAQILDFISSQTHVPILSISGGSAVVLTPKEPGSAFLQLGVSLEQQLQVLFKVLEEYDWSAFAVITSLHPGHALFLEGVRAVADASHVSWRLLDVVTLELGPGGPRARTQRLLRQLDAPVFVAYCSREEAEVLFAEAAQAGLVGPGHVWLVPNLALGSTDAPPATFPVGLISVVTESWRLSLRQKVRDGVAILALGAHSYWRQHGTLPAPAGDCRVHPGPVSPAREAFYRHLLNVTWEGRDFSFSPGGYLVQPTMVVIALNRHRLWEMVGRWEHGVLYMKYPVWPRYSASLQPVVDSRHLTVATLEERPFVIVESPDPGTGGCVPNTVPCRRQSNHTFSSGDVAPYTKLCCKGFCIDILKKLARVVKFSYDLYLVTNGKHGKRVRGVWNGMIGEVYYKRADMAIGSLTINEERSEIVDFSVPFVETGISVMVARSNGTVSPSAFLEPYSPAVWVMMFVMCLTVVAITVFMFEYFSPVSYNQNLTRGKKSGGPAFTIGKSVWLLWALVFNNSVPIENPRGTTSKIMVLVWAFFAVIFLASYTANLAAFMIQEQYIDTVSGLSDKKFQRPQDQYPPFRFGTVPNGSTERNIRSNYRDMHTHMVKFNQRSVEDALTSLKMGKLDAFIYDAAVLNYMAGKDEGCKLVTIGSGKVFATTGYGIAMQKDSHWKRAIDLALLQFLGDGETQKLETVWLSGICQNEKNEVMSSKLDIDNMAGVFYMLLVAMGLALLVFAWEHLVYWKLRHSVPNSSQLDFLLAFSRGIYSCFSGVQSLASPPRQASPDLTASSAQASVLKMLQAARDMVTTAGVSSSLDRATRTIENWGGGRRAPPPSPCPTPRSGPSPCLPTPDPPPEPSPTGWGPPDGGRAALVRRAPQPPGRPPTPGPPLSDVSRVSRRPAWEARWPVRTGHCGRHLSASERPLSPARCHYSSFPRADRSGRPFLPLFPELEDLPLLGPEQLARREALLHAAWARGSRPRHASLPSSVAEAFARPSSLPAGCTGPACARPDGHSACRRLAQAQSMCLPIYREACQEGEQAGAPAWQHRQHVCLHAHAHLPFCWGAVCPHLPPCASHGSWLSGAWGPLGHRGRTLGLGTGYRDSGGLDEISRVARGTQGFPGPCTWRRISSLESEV
T7 sequence (Q14957 20-1233, other chains not shown): as above

## CC12CC3CC(C)(C1)CC(N)(C3)C2 [Memantine, memantine hydrochloride]
[1]; [14]
  α, estimated cooperativity term: 0.10
[1]; with test item 49 nM
  L-glutamate CRC Bottom: 2.2
  L-glutamate CRC HillSlope: 1.4
  L-glutamate CRC LogEC50: −6.8
  L-glutamate CRC Top: 92
[1]; with test item 195 nM
  L-glutamate CRC Bottom: 2.0
  L-glutamate CRC HillSlope: 1.5
  L-glutamate CRC LogEC50: −6.9
  L-glutamate CRC Top: 85
[1]; with test item 781 nM
  L-glutamate CRC Bottom: 0.92
  L-glutamate CRC HillSlope: 1.4
  L-glutamate CRC Top: 76
[1]; with test item 3.1 μM
  L-glutamate CRC Bottom: 1.3
  L-glutamate CRC HillSlope: 1.2
  L-glutamate CRC LogEC50: −6.5
  L-glutamate CRC Top: 49
[1]; with test item 12.5 μM
  L-glutamate CRC Bottom: 2.5
  L-glutamate CRC HillSlope: 1.1
  L-glutamate CRC LogEC50: −6.4
  L-glutamate CRC Top: 20
[1]; with test item 50 μM
  L-glutamate CRC Bottom: 7.4
  L-glutamate CRC HillSlope: 6.1
  L-glutamate CRC LogEC50: −6.3
  L-glutamate CRC Top: 11
[2]
  profile on L-glutamate CRC: insurmountable profile
[3]; [14]
  α, estimated cooperativity term: 0.15
[3]; with test item 49 nM
  L-glutamate CRC Bottom: 0.84
  L-glutamate CRC HillSlope: 1.1
  L-glutamate CRC LogEC50: −6.6
  L-glutamate CRC Top: 95
[3]; with test item 195 nM
  L-glutamate CRC Bottom: 1.3
  L-glutamate CRC HillSlope: 1.2
  L-glutamate CRC LogEC50: −6.5
  L-glutamate CRC Top: 92
[3]; with test item 781 nM
  L-glutamate CRC Bottom: 1.1
  L-glutamate CRC HillSlope: 1.2
  L-glutamate CRC LogEC50: −6.3
  L-glutamate CRC Top: 96
[3]; with test item 3.1 μM
  L-glutamate CRC Bottom: −0.58
  L-glutamate CRC HillSlope: 1.1
  L-glutamate CRC LogEC50: −6.4
  L-glutamate CRC Top: 83
[3]; with test item 12.5 μM
  L-glutamate CRC Bottom: −0.14
  L-glutamate CRC HillSlope: 1.3
  L-glutamate CRC LogEC50: −6.3
  L-glutamate CRC Top: 68
[3]; with test item 50 μM
  L-glutamate CRC Bottom: 1.5
  L-glutamate CRC HillSlope: 1.6
  L-glutamate CRC LogEC50: −6.1
  L-glutamate CRC Top: 36
[4]; [14]
  α, estimated cooperativity term: 0.13
[4]; with test item 49 nM
  L-glutamate CRC Bottom: 5.1
  L-glutamate CRC HillSlope: 1.4
  L-glutamate CRC LogEC50: −7.3
  L-glutamate CRC Top: 94
[4]; with test item 195 nM
  L-glutamate CRC Bottom: −0.19
  L-glutamate CRC HillSlope: 1.3
  L-glutamate CRC LogEC50: −7.3
  L-glutamate CRC Top: 89
[4]; with test item 781 nM
  L-glutamate CRC Bottom: 1.1
  L-glutamate CRC HillSlope: 1.4
  L-glutamate CRC LogEC50: −7.2
  L-glutamate CRC Top: 87
[4]; with test item 3.1 μM
  L-glutamate CRC Bottom: −1.3
  L-glutamate CRC HillSlope: 1.3
  L-glutamate CRC LogEC50: −7.1
  L-glutamate CRC Top: 59
[4]; with test item 12.5 μM
  L-glutamate CRC Bottom: 1.4
  L-glutamate CRC HillSlope: 1.5
  L-glutamate CRC LogEC50: −6.7
  L-glutamate CRC Top: 26
[4]; with test item 50 μM
  L-glutamate CRC Bottom: −97133
  L-glutamate CRC HillSlope: 0.14
  L-glutamate CRC LogEC50: −37
  L-glutamate CRC Top: 19
[5]
  α, estimated cooperativity term: 0.094
[5]; hydrochloride
  L-glutamate CRC HillSlope: 2.1 and 1.5 and 1.1 and 1.7 and 1.4

## Gentamicin sulfate
[6]; 10 μM glycine
  EC50: >100 µg/mL
[6]; 1000 μM QA + 10 μg/ml GENT, 10 μM glycine, GluN2B, n=42
  calcium response (mean±SEM): 37 ± 1.4
[6]; [15]
  Minimal response (%): −3.7%
[6]; [16]
  pEC50: <4
[6]; [17]
  Response at max conc (%): 0.7%
[7]; 10 μM glycine
  EC50: >100 µg/mL
[7]; 1000 μM QA + 10 μg/ml GENT, 10 μM glycine, GluN2C, n=42
  calcium response (mean±SEM): 5.6 ± 0.4
[7]; [15]
  Minimal response (%): −8.2%
[7]; [16]
  pEC50: <4
[7]; [17]
  Response at max conc (%): 0.03%
[8]
  calcium entry induced by 0.04 μM L-glutamate: significantly increased
  calcium entry induced by 0.2 μM L-glutamate: significantly increased
  calcium entry induced by 10 μM L-glutamate: significantly decreased
[9]
  calcium entry induced by 0.04 μM L-glutamate: significantly increased
  calcium entry induced by 0.2 μM L-glutamate: significantly increased
  calcium entry induced by 10 μM L-glutamate: did not modify
[10]; 10 μM glycine
  EC50: >100 µg/mL
[10]; 10 μg/ml gentamicin, 10 μM glycine
  % effect on calcium entry, 1000 μM quinolinic acid plus gentamicin: 47±1.1%
[10]; 1000 μM QA + 10 μg/ml GENT, 10 μM glycine, GluN2A, n=42
  calcium response (mean±SEM): 47 ± 1.1
[10]; [15]
  Minimal response (%): −3.3%
[10]; [16]
  pEC50: <4
[10]; [17]
  Response at max conc (%): 0.1%
[11]
  calcium entry induced by 0.04 μM L-glutamate: significantly increased
  calcium entry induced by 10 μM L-glutamate: significantly decreased
[12]; 10 μM glycine
  EC50: >100 µg/mL
[12]; 1000 μM QA + 10 μg/ml GENT, 10 μM glycine, GluN2D, n=42
  calcium response (mean±SEM): 53 ± 1.7
[12]; [15]
  Minimal response (%): −3.2%
[12]; [16]
  pEC50: <4
[12]; [17]
  Response at max conc (%): 1.0%
[13]
  calcium entry induced by 0.04 μM L-glutamate: significantly increased
  calcium entry induced by 0.2 μM L-glutamate: decreased calcium entry
  calcium entry induced by 10 μM L-glutamate: did not modify
